Activity calls are given as the source filed them. No rule for the calls is given here.
Test system: parental cell line counter screen, S1P1 agonist assay readout
Test: signal in parental cells, counter-screen for S1P1 agonist project (AID 467);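 also: agonist potency measured against forskolin stimulation plus an EC20 level of SEW2871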

Structure (SMILES)	EC50
Cc1ccccc1OCC(=O)Nc1ccc(N2CCN(C(=O)C(C)C)CC2)c(Cl)c1	26 µM (inactive)
CCOC(=O)N1CCC(NC(=O)C2CCCN(Cc3nc(-c4cccc(Cl)c4)oc3C)C2)CC1 (stereo unspecified)	> 95.1 µM (inactive)
CCCOc1ccc(S(=O)(=O)NCc2ccc(OC)cc2)cc1	> 30 µM (inactive)
CCCn1c(CN2CCN(c3cccc(Cl)c3)CC2)nc2c1c(=O)n(C)c(=O)n2C	> 95.1 µM (inactive)
CCCCOc1ccc(S(=O)(=O)Nc2cccnc2)cc1	> 95.1 µM (inactive)
O=C(CCc1nc(-c2ccccc2F)no1)Nc1ccc(Oc2ccccc2)cc1	6.94 µM
COc1cccc(-c2csc(N3CCN(CC(=O)Nc4ccc5c(c4)OCO5)CC3)n2)c1	> 30 µM (inactive)
CCN(CC)C(=O)Oc1ccc2c(=O)c(-c3ccc(OC)cc3)coc2c1	> 95.1 µM (inactive)
CC1CC(C)(C)Nc2ccc(OC(=O)c3ccco3)cc21 (stereo unspecified)	7.66 µM
CC1=C(/C=C/C(C)=C/C=C/C(C)=C/C(=O)O)C(C)(C)CCC1	> 95.1 µM (inactive)
COc1cccc(N2CCN(c3ncnc4c3[nH]c3ccccc34)CC2C)c1 (stereo unspecified)	4.8 µM
Cc1ccc(-c2nc(CSCC(=O)N3CCN(c4ccccn4)CC3)c(C)o2)cc1	> 30 µM (inactive)
O=C(c1ccco1)N1CCN(c2ncnc3c2[nH]c2ccc(Br)cc23)CC1	> 10 µM (inactive)
CC(C)Oc1cc(O)c2c(=O)c(-c3ccc(O)cc3)coc2c1	20.5 µM (inactive)
CC(C)Cn1c(=O)c(C(=O)Nc2ccccc2S(N)(=O)=O)c(O)c2ccccc21	16.3 µM (inactive)
O=S1(=O)Nc2c(ccc3cccnc23)-c2ccccc21	> 95.1 µM (inactive)
Cc1cccc(NC(=O)Nc2ccc(C#N)cc2)n1	43 µM (inactive)
CCn1c(NC(=O)c2cccc(Cn3cc(Cl)cn3)c2)nc2ccccc21	> 95.1 µM (inactive)
N#CCCS(=O)(=O)c1nnnn1-c1ccccc1	1.34 µM
Cc1nc2ccc3nc(NC(=O)C4COc5ccccc5O4)sc3c2s1 (stereo unspecified)	> 95.1 µM (inactive)
Cc1nn(Cc2ccc(Cl)cc2)c(C)c1NC(=O)c1cc(-c2ccco2)on1	85.2 µM (inactive)
Cc1cc(-c2nnc(-c3ccccc3)c(-c3ccccc3)n2)c(C)o1	33.7 µM (inactive)
CCCCn1nnnc1SCC(=O)c1ccc(C)c(C)c1	> 95.1 µM (inactive)
Cc1cc(C(=O)N2CCN(C(c3ccccc3)c3ccccc3)CC2)no1	> 95.1 µM (inactive)

Structure (SMILES)	EC50
CC(C)Cc1cc(C(=O)Nc2sc3c(c2C#N)CCCC3)no1	> 95.1 µM (inactive)
Clc1ccc(OCCN2CCN(c3ncnc4sccc34)CC2)cc1	2.63 µM
c1ccc(-c2ccc(-c3nc(-c4ccncc4)no3)cc2)cc1	> 95.1 µM (inactive)
Oc1ccc(-c2nc(-c3ccc(O)c(O)c3)cs2)cc1	6.35 µM
CC1=C(C(=O)OCc2ccc3c(c2)OCO3)C(c2ccccc2)NC(=O)N1 (stereo unspecified)	> 10 µM (inactive)
CCOC(=O)c1sc2nc(NC(=O)C(C)(C)C)sc2c1C	> 10 µM (inactive)
COC(=O)c1ccc2c(=O)n(C3CCCCC3)c(SCC#N)nc2c1	> 95.1 µM (inactive)
CC(=O)Nc1ccc(S(=O)(=O)N2CCN(CCCOc3cc(C)ccc3C)CC2)cc1	> 30 µM (inactive)
COc1ccc(/C(O)=C2/C(=O)C(=O)N(CC3CCCO3)C2c2cccc(OC)c2)cc1 (stereo unspecified)	> 95.1 µM (inactive)
CCN=c1sc(C(=O)NCCc2ccccc2)cc(=O)n1CC	53.2 µM (inactive)
CCN(CC)S(=O)(=O)c1cccc(S(=O)(=O)c2cccc(S(=O)(=O)N(CC)CC)c2)c1	> 95.1 µM (inactive)
O=C(c1ccc(F)cc1)C(CN1CCOCC1)c1ccccc1 (stereo unspecified)	11.4 µM (inactive)
CCOC(=O)CN1C(=O)C(C)(C)Oc2ccc(C(=O)Nc3ccccc3OC)cc21	> 95.1 µM (inactive)
COc1ccccc1Oc1ccc2c(c1)C(=O)N(c1cccc(O)c1)C2=O	> 30 µM (inactive)
CCOC(=O)N1CCN(C(=O)C2CCN(c3ncnc4c3sc3cccc(F)c34)CC2)CC1	24.2 µM (inactive)
Cc1ccc(-n2c(C)cc(C(=O)CSc3nnnn3C)c2C)cc1	> 95.1 µM (inactive)
CC(C)(C)OC(=O)N[C@@H](Cc1ccccc1)c1nnc(S(=O)(=O)Cc2cccc(F)c2)o1	2.63 µM
O=C(C1CCCN1S(=O)(=O)c1cccc2cccnc12)N1CCN(c2ccccc2)CC1 (stereo unspecified)	> 95.1 µM (inactive)
CCOc1ccc(Cc2nc(-c3nonc3N)no2)cc1OCC	> 95.1 µM (inactive)
CC(Oc1ccccc1Br)C(=O)N1CCc2ccccc21 (stereo unspecified)	> 95.1 µM (inactive)
Oc1ccc(C2NCc3ccccc3-n3cccc32)cc1Cl (stereo unspecified)	> 30 µM (inactive)
Cc1ccccc1CS(=O)(=O)c1nnc([C@H](CC(C)C)NC(=O)OC(C)(C)C)o1	2.89 µM
CCCc1cc(C(=O)N2CCN(C(c3ccccc3)c3ccccc3)CC2)no1	> 95.1 µM (inactive)
O=c1c(-c2ccc3c(c2)OCCO3)c(C(F)(F)F)oc2cc(O)cc(O)c12	18.4 µM (inactive)

Structure (SMILES)	EC50
CCOc1ccccc1OCCCCCc1c(C)n[nH]c1C	> 30 µM (inactive)
CCOc1ccc(-c2noc(-c3cccnc3)n2)cc1OC	> 95.1 µM (inactive)
CC(C)OCCCNc1ncnc2c1[nH]c1ccc(F)cc12	24.4 µM (inactive)
COc1ccc(CCNc2c(C)c(C)nc3ncnn23)cc1	43.4 µM (inactive)
CCCS(=O)(=O)c1nnnn1-c1cccc(OC)c1	0.988 µM
CCCc1cc(C(=O)Nc2sc3c(c2C#N)CCC3)no1	> 95.1 µM (inactive)
Cc1ccc2c(c1)N(CC(=O)Nc1ccc3c(c1)OCCO3)C(=O)CO2	> 95.1 µM (inactive)
Cc1cc(N2CCOCC2)nc(NCc2ccccc2)n1	71.3 µM (inactive)
CC(C)[C@H](NC(=O)OC(C)(C)C)c1nnc(SCC(=O)Nc2ccc(Br)cc2)o1	> 30 µM (inactive)
Cn1c(SCC(=O)Nc2ccc(N3CCOCC3)c(Cl)c2)nnc1-c1ccccc1	> 95.1 µM (inactive)
Cc1ccc2[nH]c3c(N4CCN(Cc5ccc6c(c5)OCO6)CC4)ncnc3c2c1	> 95.1 µM (inactive)
Cc1ccc(S(=O)(=O)Nc2ccc3ncccc3c2)cc1	> 30 µM (inactive)
Cc1ccc(S(=O)(=O)n2nc(C)c(Br)c2C)c(C)c1C	> 95.1 µM (inactive)
COc1ccc(-c2nc(-c3ccc(NC(=O)c4ccncc4)cc3)no2)cc1OC	> 30 µM (inactive)
COc1ccc2ncn(-c3ccccc3)c2c1	> 95.1 µM (inactive)
COc1ccccc1-c1cc(C(=O)Nc2ccccc2SC)no1	> 95.1 µM (inactive)
CCc1c(C)sc(NC(=O)c2cc(-c3ccco3)on2)c1C#N	> 95.1 µM (inactive)
CCCC(=O)Nc1ccc2oc(-c3ccc(OC)c(Br)c3)nc2c1	> 95.1 µM (inactive)
CC(C)(C)OC(=O)N[C@@H](Cc1ccccc1)c1nnc(S(=O)(=O)Cc2ccccc2)o1	1.51 µM
COc1ccc(-c2nc(-c3ccccc3OC)no2)cc1OC	> 95.1 µM (inactive)
CCNc1nc2c(c(=O)n(C)c(=O)n2C)n1Cc1ccc(Cl)cc1	> 95.1 µM (inactive)
Cc1cccc(-c2nc(CSCC(=O)N3CCN(Cc4ccc5c(c4)OCO5)CC3)c(C)o2)c1	30.5 µM (inactive)
CCOc1ccc(-c2nc(CSCC(=O)N3CCN(c4cccc(OC)c4)CC3)c(C)o2)cc1	19.4 µM (inactive)
